According to patent publication US5817640A (Gensia Pharmaceuticals, priority 1995, dated 1998):
Several values for one entry are separate records, joined by “and”; a condition that tells them apart may be missing. Identical values can stand only once.

What was measured:
[1] = Discoloration of liquid formulation during storage; assay type: physicochemical
[2] = system: patients undergoing coronary artery bypass graft (CABG) surgery; assay: Myocardial ischemia by continuous Holter ECG and TEE (Phase 2); assay type: in vivo, human; conditions: for Mean duration of postbypass ECG ischemic episodes: patients with events, placebo 175 ± 156, p=0.04; for Incidence of prebypass ECG ischemia: placebo 0%; for Incidence of ECG ischemia (postbypass) / Incidence of preoperative (baseline) ECG ischemia: placebo 18%; for Incidence of ECG ischemia (postbypass): p=0.42; for Incidence of prebypass TEE ischemia: placebo 19%; for Incidence of prebypass TEE ischemia / Ischemic minutes per hour monitored, postbypass: p=0.22; for Incidence of postbypass TEE ischemia: placebo 29%, p=0.86; for Ischemic minutes per hour monitored, postbypass: placebo 35 ± 14; for Mean area under the S-T curve (AUC), postbypass ECG ischemia: placebo -258 ± 317, p=0.24; for Incidence of preoperative (baseline) ECG ischemia: before drug; for Mean area under the S-T segment: post-bypass, placebo 35±14
Procedure: During surgery, anesthesia was maintained by continuous infusion of fentanyl and midazolam. Routine clinical parameters were recorded using standard operating room monitoring equipment. Continuous 2-lead Holter ECG and TEE data were recorded. Standard surgical procedures (e.g., aorta cross-clamping, crystalloid cardioplegia, cardio-pulmonary bypass, hypothermia) were used. Anastomoses were constructed, aorta cross-clamp removed and patients were discontinued from bypass when body temperature was 37° C. The quality of anastomosis was judged by the surgeon. Difficulty in weaning from bypass was judged by need for one or more of the following: pacemaker, return to bypass, balloon pump or vasopressor administration. Hemodynamic measurements, including heart rate, arterial blood pressure, pulmonary capillary wedge pressure and cardiac output, were recorded before sternotomy, 15 and 30 min after bypass and upon chest closure. Radial artery and pulmonary artery pressures, myocardial and whole body temperature, O2 saturation, end-tidal CO2 and arterial blood gases were measured, and ECG recordings were obtained as clinically indicated. Hemodynamic variables (blood pressure, heart rate, pulmonary capillary wedge pressure) were controlled within 20% of baseline using prescribed regimens.
A twelve-lead ECG was obtained on arrival in the intensive care unit and during post-operative days 1, 2, 3 and at hospital discharge. Creatinine phosphokinase MB band (CK-MB) was obtained every 8 hours for 48 hours and when indicated. Radio-nuclide ventriculography for ejection fraction and wall motion score was done about 14 days post-operation and as close to hospital discharge as possible. Other tests and measurements (e.g., chest x-ray, pulmonary artery wedge pressure (PCWP) were performed when clinically indicated for diagnosis or evaluation of myocardial infarction, or congestive heart failure. Timing and dose of all cardiovascular medications within 48 hours after surgery were recorded. The total dose of all analgesics during the 24-hour post-operative period was recorded. Fluid intake and output (e.g., blood replacement and urine output) were recorded for 48 hours. The type and duration of inotropic support and antiarrhythmic intervention required were recorded through 24 hours after surgery. Two-channel Holter recordings were obtained during 3 periods, the eight hours prior to intubation, from intubation through the end of surgery, and for an additional 24-48 hours after surgery.
The evaluation of Holter tapes and echo videotapes was performed centrally by two independent blinded observers; if there was disagreement between the two, a third observer was used to "break the tie." The same observers were used throughout the study.
5. Ischemic Events--TEE. Ischemic event data were evaluated during two time periods--pre-bypass and post-bypass, using the following analysis:
a) The number of patients with ischemic events was compared across the groups using Fisher's exact test. This analysis also included pre-post changes and pre- and post-combined.
b) For patients with events, analysis of the mean duration and severity of ischemia was done. Using only the patients with ischemic events reduced the number included in the analysis, but allowed determination of whether the drug is effective in reducing the magnitude of the events, should they occur. […] For severity (an […] variable, 0-4 scale) and number of events, the Kruskal-Wallis nonparametric test was used. The same comparisons were done with the active treatment groups combined.
6. Ischemic Events--ECG. The analysis of ischemic events indicated by ECG was done using the same methods as the echo events. The time periods analyzed were: (a) baseline (Holter start to infusion start), (b) pre-bypass (infusion start to bypass start), (c) post-bypass (sideclamp off to infusion end), and (d) post-treatment (infusion end to Holter end). […]

[3] = system: patients undergoing coronary artery bypass graft (CABG) surgery; assay: Incidence of clinical outcomes, Phase 3 CABG trial; assay type: in vivo, human; conditions: for Incidence of myocardial infarction (ECG and CK-MB): placebo 4.7%; for Myocardial infarction (ECG and CK-MB), number of patients: placebo 10 of 211; for Cardiac death, number of patients: placebo 3 of 212; for Incidence of congestive heart failure: placebo 3.8%; for Life-threatening dysrhythmia, number of patients: placebo 4 of 212; for Incidence of cerebrovascular accident: placebo 4.2%; for Congestive heart failure, number of patients: placebo 8 of 212; for Cerebrovascular accident, number of patients: placebo 9 of 212; for Combined clinical outcomes, number of patients: placebo 29 of 212; for Incidence of cardiac death / Incidence of life-threatening dysrhythmia / Incidence of combined clinical outcomes: placebo […]
[4] = high dose (0.1 mg/kg/min), 0.1 mg/kg
[5] = low dose (0.05 mg/kg/min), 0.05 mg/kg
[6] = high dose 0.1 mg/kg/min, n=203, p<0.05
[7] = high dose 0.1 mg/kg/min, n=207, NS
[8] = high dose 0.1 mg/kg/min, n=207, p<0.05

NC(=O)c1ncn([C@@H]2O[C@H](CO)[C@@H](O)[C@H]2O)c1N [AICA riboside, 5-amino-1-β-D-ribofuranosyl-imidazole-4-carboxamide]
Stability of liquid formulation [1]: variable discoloration | Mean duration of postbypass ECG ischemic episodes [2, 4]: 36 ± 20 min and 36 min | Incidence of prebypass ECG ischemia ([2]; high dose (0.1 mg/kg/min)): 3% | Incidence of ECG ischemia (postbypass) ([2]; high dose (0.1 mg/kg/min)): 11% | Incidence of prebypass TEE ischemia ([2]; high dose (0.1 mg/kg/min)): 6% | Incidence of postbypass TEE ischemia ([2]; high dose (0.1 mg/kg/min)): 24% | Ischemic minutes per hour monitored, postbypass [2, 4]: 27 ± 20 min/h | Mean area under the S-T curve (AUC), postbypass ECG ischemia ([2]; high dose (0.1 mg/kg/min)): -52 ± 28 mm-min | Incidence of preoperative (baseline) ECG ischemia ([2]; high dose group (0.1 mg/kg/min)): 14% | Mean area under the S-T segment ([2]; high dose): 27±20 | Mean duration of postbypass ECG ischemic episodes [2, 5]: 125 ± 80 min and 125 min | Incidence of prebypass ECG ischemia ([2]; low dose (0.05 mg/kg/min)): 3% | Incidence of ECG ischemia (postbypass) ([2]; low dose (0.05 mg/kg/min)): 22% | Incidence of prebypass TEE ischemia ([2]; low dose (0.05 mg/kg/min)): 15% | Incidence of postbypass TEE ischemia ([2]; low dose (0.05 mg/kg/min)): 27% | Ischemic minutes per hour monitored, postbypass [2, 5]: 40 ± 15 min/h | Mean area under the S-T curve (AUC), postbypass ECG ischemia ([2]; low dose (0.05 mg/kg/min)): -172 ± 144 mm-min | Incidence of preoperative (baseline) ECG ischemia ([2]; low dose group (0.05 mg/kg/min)): 14% | Mean area under the S-T segment ([2]; low dose): 40±15 | Effect on postsurgical myocardial ischemia ([2]; patients undergoing CABG surgery): limits the extent of postsurgical myocardial ischemia | Incidence of myocardial infarction (ECG and CK-MB) [3, 6]: 1.5% | Myocardial infarction (ECG and CK-MB), number of patients [3, 6]: 3 patients | Cardiac death, number of patients [3, 7]: 0 patients | Incidence of congestive heart failure [3, 7]: 2.9% | Life-threatening dysrhythmia, number of patients [3, 7]: 3 patients | Incidence of cerebrovascular accident [3, 8]: 0.5% | Congestive heart failure, number of patients [3, 7]: 6 patients | Cerebrovascular accident, number of patients [3, 8]: 1 patients | Combined clinical outcomes, number of patients [3, 8]: 11 patients | Incidence of cardiac death [3, 7]: 0% | Incidence of life-threatening dysrhythmia [3, 7]: 1.4% | Incidence of combined clinical outcomes [3, 8]: 5.3% | Decrease in incidence of MI vs placebo ([3]; high dose, p<0.05): 68% | Decrease in incidence of cerebrovascular accident vs placebo ([3]; high dose, p<0.05): 88% | Reduction in incidence of combined outcomes vs placebo ([3]; high dose, p<0.05): 61% | Incidence of all deaths ([3]; high dose, placebo 3.3%): 0.5% | Incidence of myocardial infarction determined by either ECG or CK-MB ([3]; high dose, placebo 24.1%): 20.8% | Combined outcome efficacy of low dose ([3]; low dose 0.05 mg/kg/min vs placebo): no statistically significant efficacy | Incidence of myocardial infarction (ECG and CK-MB) ([3]; low dose 0.05 mg/kg/min, n=205): 4.4% | Myocardial infarction (ECG and CK-MB), number of patients ([3]; low dose 0.05 mg/kg/min, n=205): 9 patients | Cardiac death, number of patients ([3]; low dose 0.05 mg/kg/min, n=214): 5 patients | Incidence of congestive heart failure ([3]; low dose 0.05 mg/kg/min, n=214): 2.8% | Life-threatening dysrhythmia, number of patients ([3]; low dose 0.05 mg/kg/min, n=214): 9 patients | Incidence of cerebrovascular accident ([3]; low dose 0.05 mg/kg/min, n=214): 0.9% | Congestive heart failure, number of patients ([3]; low dose 0.05 mg/kg/min, n=214): 6 patients | Cerebrovascular accident, number of patients ([3]; low dose 0.05 mg/kg/min, n=214): 2 patients | Combined clinical outcomes, number of patients ([3]; low dose 0.05 mg/kg/min, n=214): 23 patients | Incidence of cardiac death ([3]; low dose 0.05 mg/kg/min, n=214): 2.3% | Incidence of combined clinical outcomes ([3]; low dose 0.05 mg/kg/min, n=214): 10.7% | Incidence of life-threatening dysrhythmia ([3]; low dose 0.05 mg/kg/min, n=214): 4.2%
